Experimental data as given in patent US9532938B2, “Esters of O-substituted hydroxy carboxylic acids and preparations thereof” (Eastman Chemical Company, priority 2010, dated 2017).

Biological target: T1, Novozym 435 (Candida antarctica lipase B immobilized on acrylic resin) (Moesziomyces antarcticus, UniProt P41365)
T1 construct: purchased
Assay: Enzymatic hydrolysis of oleyl glycolyl retinoate with Novozym 435
Assay type: in vitro ADME
Conditions: toluene / pH 7 phosphate buffer
Protocol: Oleyl glycolyl retinoate (50 mg; 0.082 mmol) was dissolved in 1 mL of toluene. pH 7 Phosphate buffer (1 mL) was added followed by Novozym 435 (50 mg). The mixture was stirred for 1 h at ambient temperature to afford 5% hydrolysis according to HPLC analysis.

T1 sequence (P41365 26-342): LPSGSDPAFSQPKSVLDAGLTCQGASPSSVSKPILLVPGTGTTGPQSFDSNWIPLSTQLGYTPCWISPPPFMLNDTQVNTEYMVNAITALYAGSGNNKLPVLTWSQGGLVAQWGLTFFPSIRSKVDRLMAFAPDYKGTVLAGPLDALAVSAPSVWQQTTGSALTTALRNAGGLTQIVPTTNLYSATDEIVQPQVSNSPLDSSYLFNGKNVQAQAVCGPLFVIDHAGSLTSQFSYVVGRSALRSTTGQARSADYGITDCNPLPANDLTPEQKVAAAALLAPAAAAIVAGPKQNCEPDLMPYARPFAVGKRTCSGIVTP

CCCCCCCC/C=C\CCCCCCCCOC(=O)COC(=O)/C=C(C)/C=C/C=C(C)/C=C/C1=C(C)CCCC1(C)C [Oleyl glycolyl retinoate, Oleyl Glycolyl Retinoate]
hydrolysis according to HPLC analysis (Novozym 435 (50 mg), stirred 1 h at ambient temperature): 5% | hydrolysis, control reaction without enzyme (no enzyme, ambient temperature): no hydrolysis
